In the supplement of paper PMC10307832:

Legend:
Assay in all cases: relative viability (nuclei count vs DMSO), 5 days (fraction); higher = more cells survive
201T = system: 201T
In short: (§1)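 A single step with final 0.05% Triton X-100, 1% formaldehyde and 1 ug/ml Hoechst fixed the cells and stained nuclei 5 days after treatment. Lung cancer cell lines in 1536-well plates had been treated by pin tool the day after seeding with one drug alone or a fixed anchor-drug dose plus five library-drug doses (not always all listed) in √10 steps, and nuclei were counted on 4× images. Relative viability is the ratio of nuclei in treated wells to nuclei in vehicle wells, taken as the median of duplicate plates.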

NCI-H2023 = system: NCI-H2023
In short: as §1

NCI-H1792 = system: NCI-H1792
In short: as §1

NCI-H2087 = system: NCI-H2087
In short: as §1

NCI-H1915 = system: NCI-H1915
In short: as §1

NCI-H441 = system: NCI-H441
In short: as §1

PC-3 [JPC-3] = system: PC-3 [JPC-3]
In short: as §1

LCLC-97TM1 = system: LCLC-97TM1
In short: as §1

NCI-H661 = system: NCI-H661
In short: as §1

NCI-H520 = system: NCI-H520
In short: as §1

BEN = system: BEN
In short: as §1

CAL-12T = system: CAL-12T
In short: as §1

NCI-H1651 = system: NCI-H1651
In short: as §1

LC-2-ad = system: LC-2-ad
In short: as §1

A-427 = system: A-427
In short: as §1

NCI-H1650 = system: NCI-H1650
In short: as §1

NCI-H650 = system: NCI-H650
In short: as §1

NCI-H727 = system: NCI-H727
In short: as §1

ABC-1 = system: ABC-1
In short: as §1

NCI-H460 = system: NCI-H460
In short: as §1

H3255 = system: H3255
In short: as §1

NCI-H1944 = system: NCI-H1944
In short: as §1

NC(=O)Nc1cc(-c2cccc(F)c2)sc1C(=O)N[C@H]1CCCNC1 [AZD7762] + CC(=O)c1c(C)c2cnc(Nc3ccc(N4CCNCC4)cn3)nc2n(C2CCCC2)c1=O [Palbociclib] (partner 0.5 µM) showed a relative viability (201T; first compound 0.01 µM) of 0.361, a relative viability (201T; first compound 0.03162 µM) of 0.348 and a relative viability (201T; first compound 0.1 µM) of 0.361. It also gave a relative viability (201T; first compound 0.3162 µM) of 0.386, a relative viability (201T; first compound 1 µM) of 0.402 and a relative viability (NCI-H2023; first compound 0.01 µM) of 0.402. It also gave a relative viability (NCI-H2023; first compound 0.03162 µM) of 0.377, a relative viability (NCI-H2023; first compound 0.1 µM) of 0.219 and a relative viability (NCI-H2023; first compound 0.3162 µM) of 0.162. It also gave a relative viability (NCI-H2023; first compound 1 µM) of 0.095, a relative viability (NCI-H1792; first compound 0.01 µM) of 0.725 and a relative viability (NCI-H1792; first compound 0.03162 µM) of 0.705. It also gave a relative viability (NCI-H1792; first compound 0.1 µM) of 0.677, a relative viability (NCI-H1792; first compound 0.3162 µM) of 0.731 and a relative viability (NCI-H1792; first compound 1 µM) of 0.785. It also gave a relative viability (NCI-H2087; first compound 0.01 µM) of 0.213, a relative viability (NCI-H2087; first compound 0.03162 µM) of 0.298 and a relative viability (NCI-H2087; first compound 0.1 µM) of 0.243. It also gave a relative viability (NCI-H2087; first compound 0.3162 µM) of 0.274, a relative viability (NCI-H2087; first compound 1 µM) of 0.317 and a relative viability (NCI-H1915; first compound 0.01 µM) of 0.552. The relative viability (NCI-H1915; first compound 0.03162 µM) was 0.608, the relative viability (NCI-H1915; first compound 0.1 µM) was 0.606 and the relative viability (NCI-H1915; first compound 0.3162 µM) was 0.617. It also gave a relative viability (NCI-H1915; first compound 1 µM) of 0.563, a relative viability (NCI-H441; first compound 0.01 µM) of 0.242 and a relative viability (NCI-H441; first compound 0.03162 µM) of 0.26. It also gave a relative viability (NCI-H441; first compound 0.1 µM) of 0.232, a relative viability (NCI-H441; first compound 0.3162 µM) of 0.251 and a relative viability (NCI-H441; first compound 1 µM) of 0.256. For the same molecule, the relative viability (PC-3 [JPC-3]; first compound 0.01 µM) was 0.558, the relative viability (PC-3 [JPC-3]; first compound 0.03162 µM) was 0.541 and the relative viability (PC-3 [JPC-3]; first compound 0.1 µM) was 0.537. For the same molecule, the relative viability (PC-3 [JPC-3]; first compound 0.3162 µM) was 0.538, the relative viability (PC-3 [JPC-3]; first compound 1 µM) was 0.504 and the relative viability (LCLC-97TM1; first compound 0.01 µM) was 0.214. It also gave a relative viability (LCLC-97TM1; first compound 0.03162 µM) of 0.221, a relative viability (LCLC-97TM1; first compound 0.1 µM) of 0.253 and a relative viability (LCLC-97TM1; first compound 0.3162 µM) of 0.28. It also gave a relative viability (LCLC-97TM1; first compound 1 µM) of 0.274, a relative viability (NCI-H661; first compound 0.01 µM) of 0.447 and a relative viability (NCI-H661; first compound 0.03162 µM) of 0.456. The relative viability (NCI-H661; first compound 0.1 µM) was 0.497, the relative viability (NCI-H661; first compound 0.3162 µM) was 0.461 and the relative viability (NCI-H661; first compound 1 µM) was 0.344. For the same molecule, the relative viability (NCI-H520; first compound 0.01 µM) was 0.244, the relative viability (NCI-H520; first compound 0.03162 µM) was 0.255 and the relative viability (NCI-H520; first compound 0.1 µM) was 0.189. It also gave a relative viability (NCI-H520; first compound 0.3162 µM) of 0.232, a relative viability (NCI-H520; first compound 1 µM) of 0.189 and a relative viability (BEN; first compound 0.01 µM) of 0.476. The relative viability (BEN; first compound 0.03162 µM) was 0.483, the relative viability (BEN; first compound 0.1 µM) was 0.436 and the relative viability (BEN; first compound 0.3162 µM) was 0.422. It also gave a relative viability (BEN; first compound 1 µM) of 0.366, a relative viability (CAL-12T; first compound 0.01 µM) of 0.519 and a relative viability (CAL-12T; first compound 0.03162 µM) of 0.502. The relative viability (CAL-12T; first compound 0.1 µM) was 0.412, the relative viability (CAL-12T; first compound 0.3162 µM) was 0.194 and the relative viability (CAL-12T; first compound 1 µM) was 0.129. It also gave a relative viability (NCI-H1651; first compound 0.01 µM) of 0.574, a relative viability (NCI-H1651; first compound 0.03162 µM) of 0.525 and a relative viability (NCI-H1651; first compound 0.1 µM) of 0.556. It also gave a relative viability (NCI-H1651; first compound 0.3162 µM) of 0.558, a relative viability (NCI-H1651; first compound 1 µM) of 0.501 and a relative viability (LC-2-ad; first compound 0.01 µM) of 0.499. The relative viability (LC-2-ad; first compound 0.03162 µM) was 0.521, the relative viability (LC-2-ad; first compound 0.1 µM) was 0.463 and the relative viability (LC-2-ad; first compound 0.3162 µM) was 0.365. The relative viability (LC-2-ad; first compound 1 µM) was 0.367, the relative viability (A-427; first compound 0.01 µM) was 0.568 and the relative viability (A-427; first compound 0.03162 µM) was 0.552. It also gave a relative viability (A-427; first compound 0.1 µM) of 0.595, a relative viability (A-427; first compound 0.3162 µM) of 0.563 and a relative viability (A-427; first compound 1 µM) of 0.334. The relative viability (NCI-H1650; first compound 0.01 µM) was 0.367, the relative viability (NCI-H1650; first compound 0.03162 µM) was 0.397 and the relative viability (NCI-H1650; first compound 0.1 µM) was 0.344. It also gave a relative viability (NCI-H1650; first compound 0.3162 µM) of 0.314, a relative viability (NCI-H1650; first compound 1 µM) of 0.176 and a relative viability (NCI-H650; first compound 0.01 µM) of 0.377. The relative viability (NCI-H650; first compound 0.03162 µM) was 0.374, the relative viability (NCI-H650; first compound 0.1 µM) was 0.403 and the relative viability (NCI-H650; first compound 0.3162 µM) was 0.38. For the same molecule, the relative viability (NCI-H650; first compound 1 µM) was 0.382, the relative viability (NCI-H727; first compound 0.01 µM) was 0.693 and the relative viability (NCI-H727; first compound 0.03162 µM) was 0.669. The relative viability (NCI-H727; first compound 0.1 µM) was 0.669, the relative viability (NCI-H727; first compound 0.3162 µM) was 0.642 and the relative viability (NCI-H727; first compound 1 µM) was 0.559. For the same molecule, the relative viability (ABC-1; first compound 0.01 µM) was 0.884, the relative viability (ABC-1; first compound 0.03162 µM) was 0.968 and the relative viability (ABC-1; first compound 0.1 µM) was 0.526. The relative viability (ABC-1; first compound 0.3162 µM) was 0.948, the relative viability (ABC-1; first compound 1 µM) was 0.74 and the relative viability (NCI-H460; first compound 0.01 µM) was 0.254. For the same molecule, the relative viability (NCI-H460; first compound 0.03162 µM) was 0.117, the relative viability (NCI-H460; first compound 0.1 µM) was 0.0606 and the relative viability (NCI-H460; first compound 0.3162 µM) was 0.0344. It also gave a relative viability (NCI-H460; first compound 1 µM) of 0.0224, a relative viability (H3255; first compound 0.01 µM) of 0.329 and a relative viability (H3255; first compound 0.03162 µM) of 0.312. It also gave a relative viability (H3255; first compound 0.1 µM) of 0.362, a relative viability (H3255; first compound 0.3162 µM) of 0.366 and a relative viability (H3255; first compound 1 µM) of 0.35. For the same molecule, the relative viability (NCI-H1944; first compound 0.01 µM) was 0.383, the relative viability (NCI-H1944; first compound 0.03162 µM) was 0.382 and the relative viability (NCI-H1944; first compound 0.1 µM) was 0.409. It also gave a relative viability (NCI-H1944; first compound 0.3162 µM) of 0.402 and a relative viability (NCI-H1944; first compound 1 µM) of 0.359.
